# Measured values reported in patent US3998808A, “Compositions of matter D-hetero-1,1-(α-thiocyanoacetyl) compounds” (Velsicol Chemical Corporation, priority 1971, dated 1976).
# Where two headings read alike, the source gives them in different places.
# Columns and labels:
# Type in all cases: in vivo
# [1] = system: pea aphid (Acyrthosiphon pisum); test: whole plant or invertebrate; settings: sprayed at 3500 ppm, aqueous emulsion of an acetone solution, 48 hours, in comparison to a control, read-out: mortality of the pea aphids
# Source text: The insecticidal activity of the compounds of this invention was further illustrated in an experiment for the control of the pea aphid (Acyrthosiphon pisum). In this experiment a ten day old Laxton pea plant contained in a small plastic pot was infested with ten adult pea aphids. The plant and pea aphids were then sprayed with the test compound formulated as an aqueous emulsion of an acetone solution, at a concentration of 3500 ppm. The infested plants were then placed in a holding chamber maintained at a constant temperature for a period of 48 hours. After this time the mortality of the aphids was determined and rated on a percent basis in comparison to a control. In this experiment the compounds 1-(α-thiocyanoacetyl) pyrrolidine and 1-(α-thiocyanoacetyl)-2,6-dimethylpiperidine gave 100% mortality of the pea aphids.
# [2] = system: housefly (Musca domestica); test: housefly topical test; settings: read-out: % Control Housefly Topical Test
# Procedure: In another experiment designated as the housefly topical test, each of fifty flies was contacted with a test compound by applying […] of test formulation containing 3500 ppm of active chemical to the dorsum of its thorax. The flies were then placed in a wire mesh cage where they were supplied with sugar syrup. At the end of a 24 hour period the mortality of the flies was observed and rated in comparison to a control.
# [3] = system: leaf rust of wheat (Puccinia rubigo-vera); test: protection of wheat against leaf rust of wheat; settings: wheat plants sprayed with 1000 ppm solutions before inoculation; about 8 days in greenhouse; in comparison with untreated controls
# Procedure: In one experiment carried out for the protection of wheat against leaf rust of wheat (Puccinia rubigo-vera), 6 day old wheat plants were sprayed with 1000 ppm solutions of the test compounds. After the spray film had dried, the plants were inoculated by shaking a 9 to 13 day old leaf rust of wheat culture over the foliage. Immediately after inoculation the plants were placed in a 20° C. moist chamber overnight. The plants were then transferred to a greenhouse and kept there for a period of about 8 days. After this time the extent of the disease was observed and rated in comparison with untreated controls.
# [4] = system: housefly (Musca domestica); test: housefly knockdown test; settings: sprayed with formulation containing 3500 ppm; knockdown after 30 minutes, in comparison to a control
# Procedure: In one experiment, designated as the housefly knockdown test, 50, 3-day-old, unsexed, adult houseflies were anesthetized with carbon dioxide gas and placed into a fine mesh wire cage. The flies were allowed to recover completely from the effects of the carbon dioxide gas and were then sprayed with a test formulation containing 3500 ppm of the test compound. After 30 minutes the knockdown value of the test compound was determined. Knockdown is considered as an individual fly that is unable to move its body length, and the knowndown value is given as a percent of down flies based on the number of down flies in comparison to a control.
# [5] = 1 ml of formulation containing 3500 ppm applied to dorsum of thorax, mortality after 24 hours, in comparison to a control
Structure (SMILES),mortality at 3500 ppm [1] [%],mortality at 3500 µg/mL ([2]; 24 h) [%],% Control (leaf rust of wheat) [3] [%],% Control Housefly Knockdown Test [4] [%],"mortality at 3500 µg/mL [2, 5] [%]"
"CC1CCCC(C)N1C(=O)CSC#N (stereo not drawn) [1-(α-thiocyanoacetyl)-2,6-dimethylpiperidine]",100,94,96,92,
N#CSCC(=O)N1CCCCCC1 [1-(α-thiocyanoacetyl) hexamethylenimine],,,,94,31
"N#CSCC(=O)N1CCCC1 [1-(γ-Thiocyanoacetyl) pyrrolidine, 1-(α-thiocyanoacetyl) pyrrolidine]",100,,98,,
CC1CCN(C(=O)CSC#N)CC1 [1-(α-thiocyanoacetyl)-4-pipecoline],,,99,100,100
CC1CCCN(C(=O)CSC#N)C1 (stereo not drawn) [1-(α-thiocyanoacetyl)-3-pipecoline],,,90,100,100
"CC1CCC(C)N1C(=O)CSC#N (stereo not drawn) [1-(α-thiocyanoacetyl)-2,5-dimethylpyrrolidine]",,,,100,100
